Source: PubChem BioAssay AID256 (DTP/NCI, 2004)
Several values for one entry are separate records, joined by “and”; a condition that tells them apart may be missing. Equal entries are not always repeated. Inconclusive results and toxic doses are left out. The calls were made as follows: active = survival T/C of 150% or more; inactive = T/C below 125% in these data.

Tested on: CD2F1 mice, L1210 leukemia ip, survival T/C
Experiment: NCI In Vivo Anticancer Drug Screen. Data for tumor model L1210 Leukemia (intraperitoneal) in CD2F1 (CDF1) mice
Details: higher = longer survival
Outline: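 Tumor-bearing mice (transplanted tumor) were split into treated and vehicle control groups, and the measured endpoint of each treated group was divided by that of its vehicle controls.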

[1] = endpoint: mean survival time, dose: 12.5 mg/kg/injection, schedule: Q01DX009 (ip), vehicle: saline
[2] = endpoint: mean survival time, dose: 25.0 mg/kg/injection, schedule: Q01DX009 (ip), vehicle: saline
[3] = endpoint: mean survival time, dose: 100.0 mg/kg/injection, schedule: Q04DX002 (ip), vehicle: saline with Tween-80
[4] = endpoint: mean survival time, dose: 200.0 mg/kg/injection, schedule: Q04DX002 (ip), vehicle: saline with Tween-80
[5] = endpoint: mean survival time, dose: 400.0 mg/kg/injection, schedule: Q04DX002 (ip), vehicle: saline with Tween-80
[6] = endpoint: mean survival time, dose: 100.0 mg/kg/injection, schedule: Q04DX003 (ip), vehicle: saline with Tween-80
[7] = endpoint: mean survival time, dose: 200.0 mg/kg/injection, schedule: Q04DX003 (ip), vehicle: saline with Tween-80
[8] = endpoint: mean survival time, dose: 400.0 mg/kg/injection, schedule: Q04DX003 (ip), vehicle: saline with Tween-80
[9] = endpoint: mean survival time, dose: 50.0 mg/kg/injection, schedule: Q01DX009 (ip), vehicle: saline with Tween-80
[10] = endpoint: mean survival time, dose: 100.0 mg/kg/injection, schedule: Q01DX009 (ip), vehicle: saline with Tween-80
[11] = endpoint: mean survival time, dose: 200.0 mg/kg/injection, schedule: Q01DX009 (ip), vehicle: saline with Tween-80
[12] = endpoint: mean survival time, dose: 100.0 mg/kg/injection, schedule: Q01DX001 (ip), vehicle: saline with Tween-80
[13] = endpoint: mean survival time, dose: 200.0 mg/kg/injection, schedule: Q01DX001 (ip), vehicle: saline with Tween-80
[14] = endpoint: mean survival time, dose: 400.0 mg/kg/injection, schedule: Q01DX001 (ip), vehicle: saline with Tween-80

Measured: T/C

CCC1CC2CN(CCc3c([nH]c4ccccc34)C(C(=O)OC)(c3cc4c(cc3OC)N(C)C3C(O)(C(=O)OC)C(OC(C)=O)C5(CC)C=CCN6CCC43C65)C2)C1 (stereo unspecified)
inactive: endpoint: median survival time, dose: 0.06 mg/kg/injection, schedule: Q01DX009 (ip), vehicle: saline 102 % of control | endpoint: median survival time, dose: 0.13 mg/kg/injection, schedule: Q01DX009 (ip), vehicle: saline 103 % of control | endpoint: median survival time, dose: 0.25 mg/kg/injection, schedule: Q01DX009 (ip), vehicle: saline 105 % of control | endpoint: median survival time, dose: 0.5 mg/kg/injection, schedule: Q01DX009 (ip), vehicle: saline 116 % of control | endpoint: median survival time, dose: 0.5 mg/kg/injection, schedule: Q01DX009 (ip), vehicle: water 113 % of control | endpoint: median survival time, dose: 1.0 mg/kg/injection, schedule: Q01DX009 (ip), vehicle: saline 120 % of control | endpoint: median survival time, dose: 1.0 mg/kg/injection, schedule: Q01DX009 (ip), vehicle: water 116 % of control | endpoint: median survival time, dose: 2.0 mg/kg/injection, schedule: Q01DX009 (ip), vehicle: water 104 % of control

O=C(Nc1ccc(Cl)c(C(F)(F)F)c1)Nc1c(Oc2ccc(Cl)c(Cl)c2)ccc(Cl)c1S(=O)(=O)O
inactive: [1] 100 % of control | [2] 98 % of control | endpoint: mean survival time, dose: 50.0 mg/kg/injection, schedule: Q01DX009 (ip), vehicle: saline 100 % of control

CC1=C(C2=C(C)C([N+](=O)[O-])(C(C)(C)C)C=C(C(C)(C)C)C2=O)C(=O)C(C(C)(C)C)=CC1([N+](=O)[O-])C(C)(C)C (stereo unspecified)
inactive: [3] 90 % of control | [4] 94 % of control | [5] 90 % of control

Cc1nc2c(c(-c3ccccc3)n1)Cc1c(ccc3ccccc13)O2
inactive: endpoint: mean survival time, dose: 100.0 mg/kg/injection, schedule: Q01DX001 (ip), vehicle: saline 92 % of control | endpoint: mean survival time, dose: 200.0 mg/kg/injection, schedule: Q01DX001 (ip), vehicle: saline 98 % of control | endpoint: mean survival time, dose: 400.0 mg/kg/injection, schedule: Q01DX001 (ip), vehicle: saline 103 % of control

O=C1CSC(=S)N1/N=C/c1ccccc1
inactive: endpoint: mean survival time, dose: 100.0 mg/kg/injection, schedule: Q04DX002 (ip), vehicle: saline 103 % of control

S=C1Nc2ccccc2CS1
inactive: endpoint: mean survival time, dose: 100.0 mg/kg/injection, schedule: Q01DX001 (ip), vehicle: Klucel (hydroxypropylcellulose) (HPC) 105 % of control | endpoint: mean survival time, dose: 200.0 mg/kg/injection, schedule: Q01DX001 (ip), vehicle: Klucel (hydroxypropylcellulose) (HPC) 102 % of control | endpoint: mean survival time, dose: 400.0 mg/kg/injection, schedule: Q01DX001 (ip), vehicle: Klucel (hydroxypropylcellulose) (HPC) 103 % of control

CC1OC2CC(O)C1(O)C1=C2C(O)=C(C(N)=O)C(=N)C1=O (stereo unspecified)
inactive: endpoint: median survival time, dose: 0.31 mg/kg/injection, schedule: Q01DX005 (ip), vehicle: saline 101 % of control | endpoint: median survival time, dose: 0.62 mg/kg/injection, schedule: Q01DX005 (ip), vehicle: saline 101 % of control | endpoint: median survival time, dose: 1.25 mg/kg/injection, schedule: Q01DX005 (ip), vehicle: saline 101 % of control | endpoint: median survival time, dose: 2.5 mg/kg/injection, schedule: Q01DX005 (ip), vehicle: saline 98 % of control | endpoint: median survival time, dose: 5.0 mg/kg/injection, schedule: Q01DX005 (ip), vehicle: saline 108 % of control

CCCCCC(/C=N\N=C\c1ccco1)=C\c1ccccc1
inactive: [6] 93 % of control | [7] 93 % of control | [8] 96 % of control

CCOC(=O)N(C)N=NC
inactive: endpoint: median survival time, dose: 3.75 mg/kg/injection, schedule: Q01DX005 (ip), vehicle: saline 110 % of control | endpoint: median survival time, dose: 7.5 mg/kg/injection, schedule: Q01DX005 (ip), vehicle: saline 119 % of control | endpoint: median survival time, dose: 10.8 mg/kg/injection, schedule: Q01DX005 (ip), vehicle: saline 124 % of control | endpoint: median survival time, dose: 50.0 mg/kg/injection, schedule: Q01DX005 (ip), vehicle: saline 86 % of control

COc1ccc([Se][Se]c2ccc(OC)cc2NC(C)=O)c(NC(C)=O)c1
inactive: [9] 97 % of control | [10] 101 % of control | [6] 89 % of control | [11] 105 % of control | [7] 87 % of control

O=CN(O)CC(=O)O.[Ni]
inactive: endpoint: mean survival time, dose: 12.5 mg/kg/injection, schedule: Q04DX003 (ip), vehicle: saline 102 % of control | endpoint: mean survival time, dose: 25.0 mg/kg/injection, schedule: Q04DX003 (ip), vehicle: saline 102 % of control

OC1CCCCCCCCCCC1C(O)(C(F)(F)F)C(F)(F)F (stereo unspecified)
inactive: [12] 93 % of control and 89 % of control | [10] 86 % of control | [13] 89 % of control | [11] 91 % of control | [14] 91 % of control | endpoint: mean survival time, dose: 400.0 mg/kg/injection, schedule: Q01DX009 (ip), vehicle: saline with Tween-80 97 % of control

COc1cc(C=O)ccc1OC(=O)Nc1cc([N+](=O)[O-])ccc1Cl
inactive: [9] 98 % of control and 102 % of control | [12] 93 % of control | [3] 92 % of control and 102 % of control | [6] 93 % of control | [13] 108 % of control | [4] 91 % of control and 92 % of control | [7] 107 % of control | [14] 96 % of control | [5] 88 % of control and 96 % of control | [8] 100 % of control

O=N[O-].O=N[O-].[Co].[NH-]CC[NH-].[NH-]CC[NH-]
inactive: endpoint: mean survival time, dose: 50.0 mg/kg/injection, schedule: Q04DX002 (ip), vehicle: saline with Tween-80 93 % of control | endpoint: mean survival time, dose: 75.0 mg/kg/injection, schedule: Q01DX001 (ip), vehicle: saline 103 % of control | [3] 100 % of control | endpoint: mean survival time, dose: 150.0 mg/kg/injection, schedule: Q01DX001 (ip), vehicle: saline 113 % of control | [4] 96 % of control

O=C1c2ccccc2C(=O)N1CCCCN1C(=O)c2ccccc2C1=O
inactive: [12] 90 % of control | [13] 87 % of control | [14] 90 % of control

CO[C@@]12[C@@H]3N[C@@H]3CN1C1=C(C(=O)C(Nc3ccc(O)cc3C)=C(C)C1=O)[C@@H]2COC(N)=O
inactive: endpoint: mean survival time, dose: 1.5 mg/kg/injection, schedule: Q01DX001 (ip), vehicle: water 119 % of control and 111 % of control | endpoint: mean survival time, dose: 3.0 mg/kg/injection, schedule: Q01DX001 (ip), vehicle: water 122 % of control and 111 % of control | endpoint: mean survival time, dose: 6.0 mg/kg/injection, schedule: Q01DX001 (ip), vehicle: water 120 % of control and 122 % of control | endpoint: mean survival time, dose: 12.0 mg/kg/injection, schedule: Q01DX001 (ip), vehicle: water 120 % of control

COC1=C(Br)[C@H](O)[C@](O)(CC#N)C=C1Br
inactive: endpoint: mean survival time, dose: 6.25 mg/kg/injection, schedule: Q01DX009 (ip), vehicle: saline 113 % of control | [1] 111 % of control | endpoint: mean survival time, dose: 17.5 mg/kg/injection, schedule: Q01DX009 (ip), vehicle: Klucel (hydroxypropylcellulose) (HPC) 98 % of control | [2] 117 % of control | endpoint: mean survival time, dose: 35.0 mg/kg/injection, schedule: Q01DX009 (ip), vehicle: Klucel (hydroxypropylcellulose) (HPC) 100 % of control | endpoint: mean survival time, dose: 70.0 mg/kg/injection, schedule: Q01DX009 (ip), vehicle: Klucel (hydroxypropylcellulose) (HPC) 102 % of control

O=C1C=C(c2ccccc2)C/C1=C\c1ccccc1
inactive: [12] 87 % of control | [13] 87 % of control

CSc1cc(N)nc2c1nnn2C1OC(CO)C(O)C1O (stereo unspecified)
inactive: endpoint: mean survival time, dose: 12.5 mg/kg/injection, schedule: Q01DX005 (ip), vehicle: water 94 % of control | endpoint: mean survival time, dose: 25.0 mg/kg/injection, schedule: Q01DX005 (ip), vehicle: water 100 % of control | endpoint: mean survival time, dose: 50.0 mg/kg/injection, schedule: Q01DX005 (ip), vehicle: water 95 % of control | endpoint: mean survival time, dose: 100.0 mg/kg/injection, schedule: Q01DX005 (ip), vehicle: water 90 % of control | endpoint: mean survival time, dose: 200.0 mg/kg/injection, schedule: Q01DX005 (ip), vehicle: water 87 % of control
